Measurements taken from patent publication US9187411B2, “Leukotriene B4 antagonist compound” (Eli Lilly and Company, priority 2012, dated 2015).

Tests used:
[1] = test system: CaCl2-induced abdominal aortic aneurysm; test: CaCl2-induced AAA animal efficacy model, mice; assay type: in vivo, 129SvEv mice; settings: 28 days, aortic lumenal perimeter
Excerpt: (§1) A targeted application of a calcium chloride solution to the mouse aorta induces vessel dilatation Chiou et al. J. Surg. Res. (2001), 99: 371-376; Lomgo et al. J. Clin. Invest. (2002), 110: 625-632. Two weeks after treatment, the vessel dilatation compared to the original vessel diameter becomes statistically significant, with up to 75% increase of aortic lumenal perimeter after 4 weeks. Calcium precipitates have been localized primarily within the elastic network of the media. Disruption of this structure by the calcium-elastic tissue complex weakens the vessel wall, contributing to aneurysm formation. This injury also serves as a proinflammatory stimulus, recruiting neutrophils, lymphocytes, monocytes, and mast cells.
Mice: 129SvEv males, 7 weeks of age, are acquired from Taconic Farms, Germantown, N.Y., USA.
Aneurysm Induction Model: All procedures are performed in accordance with Eli Lilly and Company Institutional Animal Care and Use guidelines. Upon their arrival, animals have a one week acclimation period during which they have ad libitum access to standard rodent chow (Purina #2014) and house water. Following the acclimation period, animals are anesthetized with isoflurane, and a laparotomy is performed for the CaCl2-stimulated induction of the abdominal aortic aneurysm (AAA). […] Interior cross sectional lumenal perimeter measurements (mm) are collected at that point to assess efficacy and statistically analyzed with JMP® 7 software (Cary, N.C.). Statistical Analysis: Measurements of lumenal perimeter are expressed as mean values±SE. […]
The efficacy signal window in the CaCl2-induced abdominal aortic aneurysm model is determined by the lumenal perimeter of the aorta in mice treated with saline-soaked gauze followed by 4-weeks dosing with vehicle that determines 100% efficacy (“Sham Vehicle”) and the lumenal perimeter of the aorta in mice treated with CaCl2-soaked gauze followed by 4-weeks dosing with vehicle (“Vehicle”) that determines 0% efficacy.

[2] = test system: LTB4-induced phosphorylation of ERK in monocytes; test: Human pERK assay in whole blood; assay type: cell-based; settings: Monocyte, 10 nM LTB4
Description: The ability of the compound of Example 2 to block LTB4-induced signaling through BLT1 was assessed in whole blood obtained from healthy human volunteers and from 129SvEv mice that are the model strain for preclinical AAA efficacy evaluation.
Whole blood is collected from human donors in 10 mL K2 ethylenediaminetetraacetic acid (EDTA) vacutainer tubes (BD Biosciences). Aliquots of whole blood are pre-warmed at 37° C. for 20 min. 10 point dose response curves of test compounds are assayed at final concentrations of 20 nM-10 μM. 10 point ½ serial dilutions of compound at 1000× of final assayed concentration are prepared in DMSO. Compound is then diluted to 10× in Dulbecco's Phosphate Buffered Saline (DPBS) (DMSO concentration is now 1%). 10 μL of compound dilutions (at 10× in DPBS) or 1% DMSO in DPBS are added to wells of a 2.0 mL volume 96 deep well plate (Nunc) and placed in 37° C. heat block.
Immediately thereafter, 80 μL whole blood is added and incubated for 20 min at 37° C. […] Samples are warmed to room temperature and analyzed on a Beckman Coulter FC500 flow cytometer. […] Data are analyzed with WinList software (Verity Software House) to determine mean and median fluorescent intensity values for pERK-PE from monocyte population.

[3] = test system: CaCl2-induced abdominal aortic aneurysm; test: CaCl2-induced AAA animal efficacy model, rats; assay type: in vivo, Sprague-Dawley rats; settings: 28 days, aortic lumenal perimeter
Excerpt: as §1
Rats: Sprague-Dawley rats, 7-8 weeks of age, are acquired from Harlan, Indianapolis, Ind., USA
Aneurysm Induction Model: All procedures are performed in accordance with Eli Lilly and Company Institutional Animal Care and Use guidelines. Upon their arrival, animals have a one week acclimation period during which they have ad libitum access to standard rodent chow (Purina #2014) and house water. Following the acclimation period, animals are anesthetized with isoflurane, and a laparotomy is performed for the CaCl2-stimulated induction of the abdominal aortic aneurysm (AAA). […] Once isolated, the region of interest (ROI) of the abdominal aorta is wrapped with sterile, cotton gauze presoaked in a 0.25 M CaCl2 solution. In sham control animals, 0.9% saline is substituted for CaCl2. After 7 min, the gauze is removed and a second CaCl2 soaked gauze reapplied. Following the second 7 min period, the gauze is removed, the aorta rinsed with 0.9% saline and the abdomen closed Animals are returned to general housing at the end of their surgical day. Compound Administration: Mice receive test compound (Example 2) by oral gavage at a dose volume of 10 mL/kg of body weight, and rats receive test compound (Example 2) by oral gavage at a dose volume of 2.5 mL/kg of body weight. Compound administration is BID (a.m. and p.m.) with the first dose given one day prior to surgery (p.m.) and the second dose given the morning of surgery. […] The day after surgery, dosing continues BID for 28 days. […] Interior cross sectional lumenal perimeter measurements (mm) are collected at that point to assess efficacy and statistically analyzed with JMP® 7 software (Cary, N.C.). Statistical Analysis: Measurements of lumenal perimeter are expressed as mean values±SE. […]
In a similar study design, the ability of the compound of Example 2 to modulate aortic aneurysm dilation following CaCl2-induced injury is evaluated in Sprague-Dawley rats.

## CCCc1c(NC(=O)CC(C)(C)C(=O)[O-])cccc1OCCCOc1cc(O)c(-c2ccc(F)cc2)cc1CC.[Na+] [Example 2, Sodium 4-[[3-[3-[2-ethyl-4-(4-fluorophenyl)-5-hydroxy-phenoxy]propoxy]-2-propyl-phenyl]amino]-2,2-dimethyl-4-oxo-butanoate]
[1]; 10 mg/kg b.i.d. oral gavage
  % Reduced (±S.E.) of AAA: 41% ± 13
[1]; 30 mg/kg b.i.d. oral gavage
  % Reduced (±S.E.) of AAA: 48% ± 10
[1]; 60 mg/kg b.i.d. oral gavage
  % Reduced (±S.E.) of AAA: 58% ± 13
[2]
  IC50: 0.814 µM
[3]; 3 mg/kg b.i.d. oral gavage
  % Reduced (±S.E.) of AAA: 46% ± 7
[3]; 10 mg/kg b.i.d. oral gavage
  % Reduced (±S.E.) of AAA: 69% ± 4
[3]; 30 mg/kg b.i.d. oral gavage
  % Reduced (±S.E.) of AAA: 85% ± 5
[3]; 60 mg/kg b.i.d. oral gavage
  % Reduced (±S.E.) of AAA: 69% ± 10
